# Values joined by “and” are separate entries in the source; they are usually repeats but may differ in a detail not shown here. Identical values can stand only once.
# How the values were obtained:
# [1] = test system: 2F2B mouse endothelial cells; assay: XTT cell viability assay (cytotoxicity of peptides); type: cell-based; conditions: 2F2B cells; for IC50: 3 hours of treatment at 37° C., XTT
# Protocol: For each peptide, cytotoxicity was assessed in 2F2B mouse endothelial cells by the XTT cell viability assay (Biotium, Hayward, Calif.). Cells were seeded in 96-well plates at 10,000 cells/well 24 hours before treatment with melittin and mutated melittins at selected concentrations. After 3 hours of treatment at 37° C., 25 μl of activated XTT solution was added to each well and incubated at 37° C. for 5 hours. After 5 hours of incubation, plates were gently shaken to achieve even dye distribution. The absorbances of the samples were measured by a microplate reader (Biorad, Model 550, Hercules, Calif.) at a wavelength of 450 nm. Background was subtracted and the results were normalized to untreated control cells.
# [2] = Surface plasmon resonance (Biacore X 100) binding of peptides on immobilized perfluorocarbon nanoparticles; conditions: read-out: dissociation constant
# Protocol: (§1) In order to evaluate whether linker peptide 1 (LP1) and linker peptide 2 (LP2) still retained high affinity on a lipid monolayer of the nanoparticles, surface plasmon resonance (SPR) studies were performed by using Biacore X 100 (Biacore Inc, Piscataway, N.J.). The binding kinetics and affinity of LP1 and LP2 on two type of nanoparticles were studied. One type was perfluorocarbon nanoparticles (e.g., perfluorooctylbromide, PFOB), the other type was oil-based (safflower core) nanoparticles. PBS (Ca^2+ and Mg^2+ free) was used as the running buffer. Nanoparticles were immobilized on Biacore sensor chip L1 by injecting nanoparticles at a flow rate of 1 μl/min for 30 minutes, followed by a running buffer wash at a flow rate of 100 μl/min for 50 seconds. Peptides in selected concentrations, prepared in running buffer, were then injected at a flow rate of 30 μl/min for 1 minute. At the end of each experiment, the sensor chip surface was regenerated by injection of 3-[(3-cholamidopropyl)dimethylammonio]-1-propanesulfonate (CHAPS) at a flow rate of 100 μl/min for 24 seconds.
# The binding kinetics of the resulting VCAM-targeting peptides (i.e., TCP1 and TCP2) on perfluorocarbon nanoparticles were examined using Biacore X 100. PBS (Ca^2+ and Mg^2+ free) was used as the running buffer. Nanoparticles were immobilized on Biacore sensor chip L1 by injecting nanoparticles at a flow rate of 1 μl/min for 30 minutes, followed by a running buffer wash at a flow rate of 100 μl/min for 50 seconds. Targeting peptide prepared at selected concentrations in running buffer was sequentially injected at a flow rate of 30 μl/min for 1 minute. At the end of each experiment, the sensor chip surface was regenerated by injection of 3-[(3-cholamidopropyl)dimethylammonio]-1-propanesulfonate (CHAPS) at a flow rate of 100 μl/min for 24 seconds. FIG. 8 presents selected sensorgrams at several different concentrations of the two VCAM-targeting peptides. The dissociation constant of TCP1 and TCP2 were 0.13 μM and 0.04 μM, respectively.
# [3] = Surface plasmon resonance (Biacore X 100) binding of peptides on immobilized oil-based nanoparticles; conditions: sensor chip L1, read-out: dissociation constant
# Protocol: as §1
# [4] = Dissociation of loaded peptide from PFOB nanoparticles (tryptophan fluorescence of supernatant); type: physicochemical; conditions: stored at 4° C., up to 70 hours after loading
# Protocol: The dissociation of the peptide from linker peptide 1-loaded PFOB nanoparticles is depicted in FIG. 4. After being loaded with the linker peptide 1, the loaded PFOB nanoparticles were stored at 4° C. for 30 minutes, 1 hour, 2 hours, 4 hours, 22 hours, 46 hours, and 70 hours. The loaded nanoparticles were centrifuged at 100 g for 10 minutes, and the dissociated linker peptide 1 was measured by using tryptophan fluorescence after excitation at 280 nm in a fluorescent spectrofluorometer (Varian Inc, Palo Alto, Calif.).
# FIG. 9 presents the dissociation of TCP1 or TCP2 from loaded PFOB nanoparticles as a function of time after loading. After loaded with TCP1 or TCP2, the PFOB nanoparticles were stored at 4° C. for 30 minutes, 1 hour, 2 hours, 4 hours, 22 hours, 46 hours, and 70 hours. The stored nanoparticles were then centrifuged at 100 g for 10 minutes and dissociated TCP1 or TCP2 was measured using tryptophan fluorescence after excitation at 280 nm in a fluorescent spectrofluorometer (Varian Inc, Palo Alto, Calif.).
# [5] = Dynamic light scattering size and zeta potential of peptide-loaded PFOB/PFC nanoparticles; type: physicochemical; conditions: for zeta potential: PFOB nanoparticles after incorporating the peptide (plain nanoparticles −17.62 mV); for average hydrodynamic diameter: PFOB nanoparticles with versus without inserted peptide
# Protocol: (§2) The size distributions of the nanoparticles with or without the linker peptide were analyzed by dynamic light scattering (Brookhaven Instruments Corp., Holtsville, N.Y.). Zeta potential (ζ) values were determined with a Brookhaven Instruments PALS Zeta Potential Analyzer (Brookhaven Instruments Corp., Holtsville, N.Y.). Data were acquired in the phase-analysis light scattering (PALS) mode following solution equilibration at 25° C. […] This change further confirms the insertion of the linker peptide 1 into the PFOB nanoparticles. Furthermore, the structural integrity of linker peptide 1 inserted PFOB nanoparticles was confirmed by transmission electron microscopy.
# The size distributions of the nanoparticles with or without cargo incorporated were analyzed by dynamic light scattering (Brookhaven Instruments Corp., Holtsville, N.Y.). The size distribution was plotted by particle number. Zeta potential (ζ) values were determined with a Brookhaven Instruments PALS Zeta Potential Analyzer (Brookhaven Instruments Corp., Holtsville, N.Y.). Data were acquired in the phase-analysis light scattering (PALS) mode following solution equilibration at 25° C.
# [6] = Dynamic light scattering size and zeta potential of peptide-loaded liposomes; type: physicochemical
# Protocol: as §2
# The interactions between linker peptide 1 and liposomes are depicted in FIG. 6. […] This change further confirms that the linker peptide 1 inserted into the liposomes.
# VCAM-1 = target: T1, VCAM-1 (Mus musculus, UniProt P29533); assay: Specific binding of VCAM targeted nanoparticles by confocal microscopy; type: cell-based; conditions: Alexa Fluor 488 labeled PFOB nanoparticles, TNF-α stimulated 2F2B cells, 1 hour
# T1 construct: endogenous in cells; host or cells: 2F2B endothelial cells, TNF-α stimulated
# T1 sequence (P29533 25-739): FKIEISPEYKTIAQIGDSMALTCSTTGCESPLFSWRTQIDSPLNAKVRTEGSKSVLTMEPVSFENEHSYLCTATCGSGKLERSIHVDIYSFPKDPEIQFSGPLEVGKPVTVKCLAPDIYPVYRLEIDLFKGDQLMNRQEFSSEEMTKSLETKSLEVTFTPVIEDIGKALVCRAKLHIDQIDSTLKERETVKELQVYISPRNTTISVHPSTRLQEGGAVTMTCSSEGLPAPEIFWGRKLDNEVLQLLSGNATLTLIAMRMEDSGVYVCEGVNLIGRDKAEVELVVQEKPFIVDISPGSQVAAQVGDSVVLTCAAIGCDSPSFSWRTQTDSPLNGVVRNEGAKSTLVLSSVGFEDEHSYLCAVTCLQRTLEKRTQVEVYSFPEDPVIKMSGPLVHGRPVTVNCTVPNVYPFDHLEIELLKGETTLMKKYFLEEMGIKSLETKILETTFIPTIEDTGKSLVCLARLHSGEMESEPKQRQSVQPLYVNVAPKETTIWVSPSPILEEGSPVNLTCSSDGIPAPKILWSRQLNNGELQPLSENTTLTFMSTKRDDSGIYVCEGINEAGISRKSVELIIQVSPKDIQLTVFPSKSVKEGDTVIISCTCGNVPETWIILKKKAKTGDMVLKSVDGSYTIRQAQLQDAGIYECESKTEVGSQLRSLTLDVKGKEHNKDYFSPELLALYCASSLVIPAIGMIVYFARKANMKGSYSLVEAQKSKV
# Protocol: The specific binding of VCAM targeted nanoparticles was evaluated by confocal microscopy in 2F2B cells, which express VCAM-1 on the cell surface after TNF-α stimulation. Alexa Fluor 488 labeled PFOB nanoparticles comprising the VCAM-targeting peptide (TCP1 or TCP2) or nanoparticles themselves were incubated with TNF-α stimulated 2F2B cells in Delta T Culture dish at 37° C. for 1 hour, followed by five PBS washes. Cells were then fixed by incubation in 1 ml of 4% paraformaldehyde at 37° C. for 5 minutes. After fixation, the cells were washed with PBS for 5 times and the cells were visualized using a confocal microscope (Zeiss Meta 510, Thornwood, N.Y.) with standard filter sets. Concomitant differential interference contrast (DIC) imaging was used to determine the location of nanoparticles in the cells.
# [7] = on perfluorocarbon nanoparticles, sensor chip L1
# [8] = VCAM-targeting peptides on perfluorocarbon nanoparticles
compound,measurement,setting,value
CC[C@H](C)[C@H](NC(=O)CNC(C)=O)C(=O)NCC(=O)N[C@@H](C)C(=O)N[C@@H](Cc1c[nH]c2ccccc12)C(=O)N[C@@H](CC(C)C)C(=O)N[C@@H](CCCCN)C(=O)N[C@H](C(=O)N[C@@H](CC(C)C)C(=O)N[C@H](C(=O)N[C@H](C(=O)NCC(=O)N[C@@H](CC(C)C)C(=O)N1CCC[C@H]1C(=O)N[C@@H](C)C(=O)N[C@@H](CC(C)C)C(=O)N[C@H](C(=O)N[C@@H](CO)C(=O)N[C@@H](Cc1c[nH]c2ccccc12)C(=O)N[C@H](C(=O)N[C@@H](CCCCN)C(=O)N[C@@H](CCCNC(=N)N)C(=O)N[C@@H](CCCCN)C(=O)N[C@@H](CCCNC(=N)N)C(=O)N[C@@H](CCC(N)=O)C(=O)N[C@@H](CCC(N)=O)C(N)=O)[C@@H](C)CC)[C@@H](C)CC)[C@@H](C)O)[C@@H](C)O)C(C)C [Peptide P1],IC50,[1],750 ± 40 nM
CC[C@H](C)[C@H](NC(=O)CNC(C)=O)C(=O)NCC(=O)N[C@@H](C)C(=O)N[C@H](C(=O)N[C@@H](CC(C)C)C(=O)N[C@@H](CCCCN)C(=O)N[C@H](C(=O)N[C@@H](CC(C)C)C(=O)N[C@H](C(=O)N[C@H](C(=O)NCC(=O)N[C@@H](CC(C)C)C(=O)N[C@@H](C)C(=O)N[C@@H](C)C(=O)N[C@@H](CC(C)C)C(=O)N[C@H](C(=O)N[C@@H](CO)C(=O)N[C@@H](Cc1c[nH]c2ccccc12)C(=O)N[C@H](C(=O)N[C@@H](CCCCN)C(=O)N[C@@H](CCCNC(=N)N)C(=O)N[C@@H](CCCCN)C(=O)N[C@@H](CCCNC(=N)N)C(=O)N[C@@H](CCC(N)=O)C(=O)N[C@@H](CCC(N)=O)C(N)=O)[C@@H](C)CC)[C@@H](C)CC)[C@@H](C)O)[C@@H](C)O)C(C)C)C(C)C [Peptide P2],cytotoxicity among the modified peptides (FIG. 2),[1],least cytotoxicity
same,IC50,[1],26600 ± 560 nM
same,Kd,[2]; [7],5.48 nM
same,Kd,[3],0.64 nM
CC[C@H](C)[C@H](NC(=O)[C@H](CC(C)C)NC(=O)[C@H](C)NC(=O)[C@@H]1CCCN1C(=O)[C@H](CC(C)C)NC(=O)CNC(=O)[C@@H](NC(=O)[C@@H](NC(=O)[C@H](CC(C)C)NC(=O)[C@@H](NC(=O)[C@H](CCCCN)NC(=O)[C@H](CC(C)C)NC(=O)[C@@H](NC(C)=O)C(C)C)C(C)C)[C@@H](C)O)[C@@H](C)O)C(=O)N[C@@H](CO)C(=O)N[C@@H](Cc1c[nH]c2ccccc12)C(=O)N[C@H](C(=O)N[C@@H](CCCCN)C(=O)N[C@@H](CCCNC(=N)N)C(=O)N[C@@H](CCCCN)C(=O)N[C@@H](CCCNC(=N)N)C(=O)N[C@@H](CCC(N)=O)C(=O)N[C@@H](CCC(N)=O)C(N)=O)[C@@H](C)CC [Peptide P3],IC50,[1],14400 ± 920 nM
"CC[C@H](C)[C@H](NC(=O)[C@H](CC(C)C)NC(=O)[C@H](C)NC(=O)[C@@H]1CCCN1C(=O)[C@H](CC(C)C)NC(=O)CNC(=O)[C@@H](NC(=O)[C@@H](NC(=O)[C@H](CC(C)C)NC(=O)[C@@H](NC(C)=O)C(C)C)[C@@H](C)O)[C@@H](C)O)C(=O)N[C@@H](CO)C(=O)N[C@@H](Cc1c[nH]c2ccccc12)C(=O)N[C@H](C(=O)N[C@@H](CCCCN)C(=O)N[C@@H](CCCNC(=N)N)C(=O)N[C@@H](CCCCN)C(=O)N[C@@H](CCCNC(=N)N)C(=O)N[C@@H](CCC(N)=O)C(=O)N[C@@H](CCC(N)=O)C(N)=O)[C@@H](C)CC [Peptide P4, VLTTGLPALISWIKRKRQQ]",cytotoxicity among the modified peptides (FIG. 2),[1],least cytotoxicity
same,IC50,[1],114000 nM and 115000 nM
same,decrease in cytotoxicity compared to MMLT,[1]; ratio of cytotoxicity index (IC50),~50 fold
same,cell toxicity,[1]; up to a concentration of 90 μM,essentially no cell toxicity
same,Kd,[2]; [7],225 nM
same,Kd,[3],22.9 nM
same,loaded peptide dissociated from the PFOB nanoparticles,[4],< 10%
same,zeta potential,[5],+23.33 mV
same,average hydrodynamic diameter,[5],not affected
same,zeta potential,[6]; liposomes after incorporating the peptide (plain liposomes −36.73 mV),−29.843 mV
same,average hydrodynamic diameter,[6]; liposomes with versus without inserted peptide,not affected
CC[C@H](C)[C@H](NC(=O)CNC(C)=O)C(=O)NCC(=O)N[C@@H](C)C(=O)N[C@H](C(=O)N[C@@H](CC(C)C)C(=O)N[C@@H](CCCCN)C(=O)N[C@H](C(=O)N[C@@H](CC(C)C)C(=O)N[C@H](C(=O)N[C@H](C(=O)NCC(=O)N[C@@H](CC(C)C)C(=O)N1CCC[C@H]1C(=O)N[C@@H](C)C(=O)N[C@@H](CC(C)C)C(=O)N[C@H](C(=O)N[C@@H](CO)C(=O)N[C@@H](Cc1c[nH]c2ccccc12)C(=O)N[C@H](C(=O)N[C@@H](CCCCN)C(=O)N[C@@H](CCCNC(=N)N)C(N)=O)[C@@H](C)CC)[C@@H](C)CC)[C@@H](C)O)[C@@H](C)O)C(C)C)C(C)C [Peptide P5],IC50,[1],6410 ± 640 nM
VHPKQHRggVLTTGLPALISWIKR [TCP2],Kd,[2]; [8],40 nM
same,zeta potential,[5],12.43 mV
same,average hydrodynamic diameter,[5],not affected
VLTTGLPALISWIKRggVHPKQHR [TCP1],Kd,[2]; [8],130 nM
same,zeta potential,[5],13.47 mV
same,average hydrodynamic diameter,[5],not affected
same,binding to cellular VCAM-1 (fluorescent signal),VCAM-1,better binding

# Source: patent US8617516B2, “Universal anchor peptide for nanoparticles” (Washington University, priority 2008, dated 2013)
